Assay results from ChEMBL document CHEMBL4507297, “Data for DCP probe PF-04457845” (2021).

Experiments:
[1] = target: Serine/threonine-protein kinase BRSK2 (Homo sapiens) (UniProt Q8IWQ3); conditions: Compound concentration 1000.0 nM
[2] = target: Serine/threonine-protein kinase 32C (Homo sapiens) (UniProt Q86UX6); conditions: Compound concentration 1000.0 nM
[3] = target: SRSF protein kinase 1 (Homo sapiens) (UniProt Q96SB4); conditions: Compound concentration 1000.0 nM
[4] = target: Proto-oncogene tyrosine-protein kinase receptor Ret (Homo sapiens) (UniProt P07949); conditions: Compound concentration 1000.0 nM
Proto-oncogene tyrosine-protein kinase receptor Ret (Homo sapiens), sequence (P07949 whole entry): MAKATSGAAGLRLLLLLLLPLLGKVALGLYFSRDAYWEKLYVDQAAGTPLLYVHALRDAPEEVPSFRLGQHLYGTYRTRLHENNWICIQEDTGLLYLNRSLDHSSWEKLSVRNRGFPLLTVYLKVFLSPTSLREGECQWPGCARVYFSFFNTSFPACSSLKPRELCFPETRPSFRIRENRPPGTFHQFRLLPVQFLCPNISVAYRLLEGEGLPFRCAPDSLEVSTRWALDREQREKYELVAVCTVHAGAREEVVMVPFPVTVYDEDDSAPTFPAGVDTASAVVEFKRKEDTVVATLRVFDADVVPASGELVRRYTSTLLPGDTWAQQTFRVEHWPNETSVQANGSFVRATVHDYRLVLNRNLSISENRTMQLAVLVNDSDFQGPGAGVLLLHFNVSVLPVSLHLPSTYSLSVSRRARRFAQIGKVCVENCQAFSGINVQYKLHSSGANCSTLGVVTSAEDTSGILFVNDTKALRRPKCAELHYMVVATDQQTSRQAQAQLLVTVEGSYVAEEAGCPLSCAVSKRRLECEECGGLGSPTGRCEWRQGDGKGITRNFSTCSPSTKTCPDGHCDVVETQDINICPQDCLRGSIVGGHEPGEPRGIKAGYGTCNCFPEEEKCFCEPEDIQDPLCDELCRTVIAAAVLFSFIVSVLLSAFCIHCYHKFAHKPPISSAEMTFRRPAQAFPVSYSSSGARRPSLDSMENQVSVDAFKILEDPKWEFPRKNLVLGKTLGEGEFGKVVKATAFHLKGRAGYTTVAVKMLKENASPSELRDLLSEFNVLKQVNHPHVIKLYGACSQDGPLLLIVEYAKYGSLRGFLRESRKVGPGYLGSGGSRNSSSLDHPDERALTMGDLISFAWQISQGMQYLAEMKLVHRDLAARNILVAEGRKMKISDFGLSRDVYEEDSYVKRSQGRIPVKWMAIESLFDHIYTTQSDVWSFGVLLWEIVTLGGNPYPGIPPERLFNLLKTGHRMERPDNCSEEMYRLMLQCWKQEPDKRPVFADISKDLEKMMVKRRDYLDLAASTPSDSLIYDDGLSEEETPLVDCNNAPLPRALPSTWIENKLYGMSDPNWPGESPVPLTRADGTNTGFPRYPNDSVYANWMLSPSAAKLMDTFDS

[5] = target: Angiopoietin-1 receptor (Homo sapiens) (UniProt Q02763); conditions: Compound concentration 1000.0 nM
[6] = target: Macrophage-stimulating protein receptor (Homo sapiens) (UniProt Q04912); conditions: Compound concentration 1000.0 nM
Macrophage-stimulating protein receptor (Homo sapiens), sequence (Q04912 25-304 limits assumed): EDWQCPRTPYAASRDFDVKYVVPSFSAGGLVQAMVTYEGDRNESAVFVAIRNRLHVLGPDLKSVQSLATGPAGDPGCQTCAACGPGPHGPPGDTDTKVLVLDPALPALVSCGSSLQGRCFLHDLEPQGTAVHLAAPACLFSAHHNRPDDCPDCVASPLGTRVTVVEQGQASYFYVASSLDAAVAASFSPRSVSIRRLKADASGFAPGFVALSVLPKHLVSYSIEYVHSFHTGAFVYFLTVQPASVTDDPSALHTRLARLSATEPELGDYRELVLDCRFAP
Macrophage-stimulating protein receptor (Homo sapiens), sequence (Q04912 310-1400 limits assumed): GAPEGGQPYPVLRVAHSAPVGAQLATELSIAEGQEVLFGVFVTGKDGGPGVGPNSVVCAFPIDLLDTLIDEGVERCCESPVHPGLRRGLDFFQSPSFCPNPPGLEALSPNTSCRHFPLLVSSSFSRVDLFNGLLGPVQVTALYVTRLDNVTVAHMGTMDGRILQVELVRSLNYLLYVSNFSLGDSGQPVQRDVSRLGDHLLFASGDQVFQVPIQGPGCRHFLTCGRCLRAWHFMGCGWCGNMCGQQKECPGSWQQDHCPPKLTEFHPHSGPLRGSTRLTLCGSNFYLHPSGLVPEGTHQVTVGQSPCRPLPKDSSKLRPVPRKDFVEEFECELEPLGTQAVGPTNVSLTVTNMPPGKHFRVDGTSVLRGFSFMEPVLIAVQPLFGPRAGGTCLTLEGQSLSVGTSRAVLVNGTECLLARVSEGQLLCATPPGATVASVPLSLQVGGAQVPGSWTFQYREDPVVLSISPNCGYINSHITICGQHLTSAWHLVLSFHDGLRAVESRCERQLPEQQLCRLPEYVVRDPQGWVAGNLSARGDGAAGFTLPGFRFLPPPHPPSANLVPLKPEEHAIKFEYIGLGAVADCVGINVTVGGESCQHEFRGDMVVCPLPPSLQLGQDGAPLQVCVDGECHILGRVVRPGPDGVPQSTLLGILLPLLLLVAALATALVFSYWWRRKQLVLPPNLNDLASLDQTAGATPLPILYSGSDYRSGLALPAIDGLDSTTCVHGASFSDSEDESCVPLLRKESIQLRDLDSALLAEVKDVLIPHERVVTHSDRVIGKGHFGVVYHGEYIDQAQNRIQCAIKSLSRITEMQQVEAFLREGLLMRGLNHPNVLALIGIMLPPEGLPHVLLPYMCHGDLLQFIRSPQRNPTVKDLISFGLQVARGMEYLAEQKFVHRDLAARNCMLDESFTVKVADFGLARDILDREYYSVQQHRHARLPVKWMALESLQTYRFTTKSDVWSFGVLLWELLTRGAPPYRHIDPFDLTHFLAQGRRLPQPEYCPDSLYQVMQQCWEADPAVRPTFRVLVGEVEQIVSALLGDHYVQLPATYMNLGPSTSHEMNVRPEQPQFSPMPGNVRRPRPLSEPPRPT

[7] = test system: Fibroblast growth factor receptor 3 (Homo sapiens), P22607 [G697C]; conditions: Compound concentration 1000.0 nM
[8] = target: Aurora kinase A (Homo sapiens) (UniProt O14965); conditions: Compound concentration 1000.0 nM
[9] = target: Serine/threonine-protein kinase SBK1 (Homo sapiens) (UniProt Q52WX2); conditions: Compound concentration 1000.0 nM
[10] = target: Peripheral plasma membrane protein CASK (Homo sapiens) (UniProt O14936); conditions: Compound concentration 1000.0 nM
[11] = target: Serine/threonine-protein kinase Nek5 (Homo sapiens) (UniProt Q6P3R8); conditions: Compound concentration 1000.0 nM
[12] = target: Cyclin-dependent kinase 7 (Homo sapiens) (UniProt P50613); conditions: Compound concentration 1000.0 nM
[13] = target: 5'-AMP-activated protein kinase catalytic subunit alpha-1 (Homo sapiens) (UniProt Q13131); conditions: Compound concentration 1000.0 nM
[14] = target: Mitogen-activated protein kinase kinase kinase kinase 4 (Homo sapiens) (UniProt O95819); conditions: Compound concentration 1000.0 nM
[15] = target: Phosphatidylinositol 5-phosphate 4-kinase type-2 gamma (Homo sapiens) (UniProt Q8TBX8); conditions: Compound concentration 1000.0 nM
[16] = target: Ribosomal protein S6 kinase alpha-1 (Homo sapiens) (UniProt Q15418); conditions: Compound concentration 1000.0 nM
[17] = target: Phosphatidylinositol 4-phosphate 5-kinase type-1 gamma (Homo sapiens) (UniProt O60331); conditions: Compound concentration 1000.0 nM
[18] = test system: Proto-oncogene tyrosine-protein kinase receptor Ret (Homo sapiens), P07949 [V804L]; conditions: Compound concentration 1000.0 nM
Proto-oncogene tyrosine-protein kinase receptor Ret (Homo sapiens), P07949 [V804L], sequence (P07949 whole entry V804L): as the sequence (P07949 whole entry) above, with V804L counted along it

[19] = target: Dual specificity mitogen-activated protein kinase kinase 6 (Homo sapiens) (UniProt P52564); conditions: Compound concentration 1000.0 nM
[20] = target: Ephrin type-B receptor 2 (Homo sapiens) (UniProt P29323); conditions: Compound concentration 1000.0 nM
[21] = test system: Epidermal growth factor receptor (Homo sapiens), P00533 [UNDEFINED MUTATION]; conditions: Compound concentration 1000.0 nM
Epidermal growth factor receptor (Homo sapiens), P00533 [UNDEFINED MUTATION], sequence (P00533 whole entry, looked up, change not shown): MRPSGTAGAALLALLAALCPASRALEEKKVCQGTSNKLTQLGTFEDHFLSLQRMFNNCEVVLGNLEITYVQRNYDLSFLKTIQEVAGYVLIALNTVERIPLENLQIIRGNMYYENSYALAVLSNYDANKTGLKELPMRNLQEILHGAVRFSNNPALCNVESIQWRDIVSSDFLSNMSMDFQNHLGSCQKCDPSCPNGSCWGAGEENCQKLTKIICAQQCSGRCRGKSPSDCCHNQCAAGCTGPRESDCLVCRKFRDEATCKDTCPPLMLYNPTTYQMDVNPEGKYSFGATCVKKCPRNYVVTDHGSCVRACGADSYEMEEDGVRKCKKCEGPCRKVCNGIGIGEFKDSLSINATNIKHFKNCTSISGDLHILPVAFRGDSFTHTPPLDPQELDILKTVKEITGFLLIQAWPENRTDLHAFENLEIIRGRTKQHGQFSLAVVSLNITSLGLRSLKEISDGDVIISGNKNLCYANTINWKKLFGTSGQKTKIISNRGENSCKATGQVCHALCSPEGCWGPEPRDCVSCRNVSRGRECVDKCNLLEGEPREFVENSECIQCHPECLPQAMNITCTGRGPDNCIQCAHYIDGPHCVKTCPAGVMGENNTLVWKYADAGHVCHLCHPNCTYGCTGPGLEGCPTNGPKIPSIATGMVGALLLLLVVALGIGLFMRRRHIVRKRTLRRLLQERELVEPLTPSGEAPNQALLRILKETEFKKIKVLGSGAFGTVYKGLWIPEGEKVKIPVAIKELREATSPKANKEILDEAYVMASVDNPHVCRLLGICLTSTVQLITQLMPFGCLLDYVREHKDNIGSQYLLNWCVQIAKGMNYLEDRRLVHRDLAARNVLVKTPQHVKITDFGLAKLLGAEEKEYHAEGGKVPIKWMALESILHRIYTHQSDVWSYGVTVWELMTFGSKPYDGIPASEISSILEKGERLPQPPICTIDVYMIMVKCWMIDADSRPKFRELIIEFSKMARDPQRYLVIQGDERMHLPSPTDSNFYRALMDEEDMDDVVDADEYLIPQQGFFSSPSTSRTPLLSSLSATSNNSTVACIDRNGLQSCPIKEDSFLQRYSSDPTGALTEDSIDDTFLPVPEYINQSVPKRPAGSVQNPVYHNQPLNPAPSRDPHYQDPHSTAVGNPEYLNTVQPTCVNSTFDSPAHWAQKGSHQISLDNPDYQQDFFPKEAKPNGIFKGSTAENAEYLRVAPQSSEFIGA

[22] = target: Mitogen-activated protein kinase kinase kinase 9 (Homo sapiens) (UniProt P80192); conditions: Compound concentration 1000.0 nM
[23] = target: Cyclin-dependent kinase 4 (Homo sapiens) (UniProt P11802); conditions: Compound concentration 1000.0 nM
[24] = test system: Tyrosine-protein kinase ABL1 (Homo sapiens), P00519 [T315I]; conditions: Compound concentration 1000.0 nM
[25] = target: Serine/threonine-protein kinase PLK4 (Homo sapiens) (UniProt O00444); conditions: Compound concentration 1000.0 nM
[26] = target: SNF-related serine/threonine-protein kinase (Homo sapiens) (UniProt Q9NRH2); conditions: Compound concentration 1000.0 nM
[27] = test system: Phosphatidylinositol 4,5-bisphosphate 3-kinase catalytic subunit alpha isoform (Homo sapiens), P42336 [E545K]; conditions: Compound concentration 1000.0 nM
Rattus norvegicus = species on record: Rattus norvegicus; conditions: Compound concentration 10.0 uM
[28] = test system: Mast/stem cell growth factor receptor Kit (Homo sapiens), P10721 [V559D]; conditions: Compound concentration 1000.0 nM
[29] = target: Rhodopsin kinase GRK7 (Homo sapiens) (UniProt Q8WTQ7); conditions: Compound concentration 1000.0 nM
[30] = test system: Receptor-type tyrosine-protein kinase FLT3 (Homo sapiens), P36888 [UNDEFINED MUTATION]; conditions: Compound concentration 1000.0 nM
[31] = target: Serine/threonine-protein kinase WNK4 (Homo sapiens) (UniProt Q96J92); conditions: Compound concentration 1000.0 nM
Serine/threonine-protein kinase WNK4 (Homo sapiens), sequence (Q96J92 whole entry): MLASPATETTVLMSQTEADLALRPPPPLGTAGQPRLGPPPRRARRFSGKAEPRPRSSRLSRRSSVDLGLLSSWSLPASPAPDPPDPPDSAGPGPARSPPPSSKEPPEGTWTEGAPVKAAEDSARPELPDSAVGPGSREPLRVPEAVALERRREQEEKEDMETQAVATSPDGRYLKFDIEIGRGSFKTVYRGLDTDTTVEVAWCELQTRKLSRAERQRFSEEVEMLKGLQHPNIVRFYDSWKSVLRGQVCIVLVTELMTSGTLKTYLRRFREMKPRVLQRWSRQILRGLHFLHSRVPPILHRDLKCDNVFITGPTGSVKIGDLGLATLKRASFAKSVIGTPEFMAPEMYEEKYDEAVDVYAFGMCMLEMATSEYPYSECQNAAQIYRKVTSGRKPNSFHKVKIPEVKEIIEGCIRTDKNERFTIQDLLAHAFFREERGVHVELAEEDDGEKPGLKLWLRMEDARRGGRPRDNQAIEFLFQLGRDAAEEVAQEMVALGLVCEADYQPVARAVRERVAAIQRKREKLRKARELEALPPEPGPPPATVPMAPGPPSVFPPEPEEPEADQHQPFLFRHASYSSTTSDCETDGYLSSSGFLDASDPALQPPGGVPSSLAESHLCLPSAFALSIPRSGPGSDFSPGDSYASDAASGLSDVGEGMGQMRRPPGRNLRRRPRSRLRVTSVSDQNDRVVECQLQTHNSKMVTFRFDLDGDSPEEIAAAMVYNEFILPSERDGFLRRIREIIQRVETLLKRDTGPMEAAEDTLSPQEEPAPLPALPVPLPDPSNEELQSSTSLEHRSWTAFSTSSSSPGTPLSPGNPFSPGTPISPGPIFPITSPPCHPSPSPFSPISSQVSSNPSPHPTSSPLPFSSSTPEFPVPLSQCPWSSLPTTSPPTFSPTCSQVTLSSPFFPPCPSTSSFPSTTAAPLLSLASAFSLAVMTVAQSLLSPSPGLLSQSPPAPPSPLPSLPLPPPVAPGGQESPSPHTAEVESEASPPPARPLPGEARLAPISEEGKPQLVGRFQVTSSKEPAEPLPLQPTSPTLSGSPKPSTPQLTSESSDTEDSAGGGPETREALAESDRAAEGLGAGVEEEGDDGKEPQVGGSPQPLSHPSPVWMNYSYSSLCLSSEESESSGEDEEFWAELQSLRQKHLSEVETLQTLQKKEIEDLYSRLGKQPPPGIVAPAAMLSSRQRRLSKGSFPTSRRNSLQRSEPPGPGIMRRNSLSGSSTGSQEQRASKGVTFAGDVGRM

[32] = target: Cyclin-dependent kinase 14 (Homo sapiens) (UniProt O94921); conditions: Compound concentration 1000.0 nM
[33] = target: Tyrosine-protein kinase receptor UFO (Homo sapiens) (UniProt P30530); conditions: Compound concentration 1000.0 nM
[34] = target: Homeodomain-interacting protein kinase 4 (Homo sapiens) (UniProt Q8NE63); conditions: Compound concentration 1000.0 nM
[35] = target: Serine/threonine-protein kinase PAK 6 (Homo sapiens) (UniProt Q9NQU5); conditions: Compound concentration 1000.0 nM
[36] = target: Tyrosine-protein kinase Tec (Homo sapiens) (UniProt P42680); conditions: Compound concentration 1000.0 nM
[37] = target: T1, Muscarinic acetylcholine receptor M1 (Homo sapiens) (UniProt P11229); conditions: Compound concentration 10.0 uM
T1 sequence (whole entry): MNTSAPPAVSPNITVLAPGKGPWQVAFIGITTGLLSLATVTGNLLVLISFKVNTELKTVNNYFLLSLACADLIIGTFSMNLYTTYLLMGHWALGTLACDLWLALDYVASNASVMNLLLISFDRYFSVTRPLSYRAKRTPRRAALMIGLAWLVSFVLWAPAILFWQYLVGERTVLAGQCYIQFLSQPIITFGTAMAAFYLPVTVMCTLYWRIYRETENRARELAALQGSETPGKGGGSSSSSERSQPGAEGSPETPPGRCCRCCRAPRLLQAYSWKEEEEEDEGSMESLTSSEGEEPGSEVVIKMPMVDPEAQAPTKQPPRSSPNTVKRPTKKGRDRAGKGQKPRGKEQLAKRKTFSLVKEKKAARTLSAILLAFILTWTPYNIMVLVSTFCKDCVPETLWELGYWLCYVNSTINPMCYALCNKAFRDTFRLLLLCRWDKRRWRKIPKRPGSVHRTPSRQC

[38] = target: Beta-1 adrenergic receptor (Homo sapiens) (UniProt P08588); conditions: Compound concentration 10.0 uM

SMILES	residual activity [1] [%]	residual activity [2] [%]	residual activity [3] [%]	residual activity [4] [%]	residual activity [5] [%]	residual activity [6] [%]	residual activity [7] [%]	residual activity [8] [%]	residual activity [9] [%]	residual activity [10] [%]	residual activity [11] [%]	residual activity [12] [%]	residual activity [13] [%]	residual activity [14] [%]	residual activity [15] [%]	residual activity [16] [%]	residual activity [17] [%]	residual activity [18] [%]	residual activity [19] [%]	residual activity [20] [%]	also measured
O=C(Nc1cccnn1)N1CC(C/C=C/c2cncc(Oc3ccc(C(F)(F)F)cn3)n2)C1	100	100	82	100	84	100	100	100	89	64	100	81	100	100	100	92	100	93	100	100	residual activity [21]: 85%; residual activity [22]: 100%; residual activity [23]: 75%; residual activity [24]: 80%; residual activity [25]: 98%; residual activity [26]: 100%; residual activity [27]: 81%; inhibition (Rattus norvegicus): 25.6%; residual activity [28]: 64%; residual activity [29]: 85%; residual activity [30]: 76%; residual activity [31]: 0%; residual activity [32]: 100%; residual activity [33]: 100%; residual activity [34]: 92%; residual activity [35]: 100%; residual activity [36]: 100%; inhibition [37]: -6.78%; inhibition [38]: 1.97%
O=C(Nc1cccnn1)N1CCC(=Cc2cccc(Oc3ccc(C(F)(F)F)cn3)c2)CC1	90	100	97	100	94	92	100	100	100	92	97	100	88	100	75	100	66	86	100	100	residual activity [21]: 73%; residual activity [22]: 100%; residual activity [23]: 100%; residual activity [24]: 76%; residual activity [25]: 100%; residual activity [26]: 100%; residual activity [27]: 100%; inhibition (Rattus norvegicus): 59.6%; residual activity [28]: 75%; residual activity [29]: 100%; residual activity [30]: 100%; residual activity [31]: 96%; residual activity [32]: 89%; residual activity [33]: 100%; residual activity [34]: 100%; residual activity [35]: 100%; residual activity [36]: 100%; inhibition [37]: 29.5%; inhibition [38]: 16.5%
